For orientation: pIC50 means the IC50 on a negative log10 scale, so that one unit is a factor of ten. Higher therefore signals a small IC50.

pIC50: −log10 of the molar value.

Here are results for 26 molecules from BindingDB's records for PubMed 38943875 (Kurukshetra University).

The experiment concerns the target T1, Alpha-amylase 1A (Homo sapiens, UniProt P0DUB6).
T1 sequence (P0DUB6 whole entry): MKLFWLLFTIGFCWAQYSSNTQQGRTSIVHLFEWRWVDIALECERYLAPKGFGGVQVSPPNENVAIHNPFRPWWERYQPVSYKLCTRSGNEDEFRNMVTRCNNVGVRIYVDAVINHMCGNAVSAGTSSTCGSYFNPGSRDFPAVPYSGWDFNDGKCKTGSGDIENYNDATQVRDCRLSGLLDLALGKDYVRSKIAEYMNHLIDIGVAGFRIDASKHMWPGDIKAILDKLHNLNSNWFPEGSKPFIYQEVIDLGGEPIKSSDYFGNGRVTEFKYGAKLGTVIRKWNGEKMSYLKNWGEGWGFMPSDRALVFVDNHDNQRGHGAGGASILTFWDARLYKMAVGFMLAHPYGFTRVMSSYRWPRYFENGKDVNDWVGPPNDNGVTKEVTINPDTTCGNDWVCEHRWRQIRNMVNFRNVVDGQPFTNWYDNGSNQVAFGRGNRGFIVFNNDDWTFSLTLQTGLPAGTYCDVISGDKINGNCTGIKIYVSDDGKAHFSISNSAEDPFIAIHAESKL
Put plainly: Inhibition of alpha-amylase (unknown origin) using 1% starch as substrate preincubated for 30 mins followed by substrate addition and measured after 30 mins by colorimetric analysis.
`C#CCN1C(=O)SC(=CN(C)C)C1=O`: the negative-log IC50 (pIC50) is 3.86.

In turn, `Cc1cccc(-n2cc(CN3C(=O)SC(=CN(C)C)C3=O)nn2)c1` gave a pIC50 of 4.21. This pIC50 lies 0.35 log units higher than the previous one.

`CN(C)C=C1SC(=O)N(Cc2cn(-c3ccc([N+](=O)[O-])cc3)nn2)C1=O` had a pIC50 of 4.23.

In turn, `CN(C)C=C1SC(=O)N(Cc2cn(-c3ccccc3)nn2)C1=O` gave a negative-log IC50 (pIC50) of 4.00.

Take `COc1ccc(-n2cc(CN3C(=O)SC(=CN(C)C)C3=O)nn2)cc1`: the negative logarithm of the IC50 (pIC50) is 4.28. This pIC50 lies 0.28 log units higher than the previous one.

As to `CN(C)C=C1SC(=O)N(Cc2cn(-c3ccnc4cc(Cl)ccc34)nn2)C1=O`, the negative-log IC50 (pIC50) was 4.40.

Take `CN(C)C=C1SC(=O)N(Cc2cn(-c3ccc(F)cc3)nn2)C1=O`: the pIC50 is 4.03.

`CN(C)C=C1SC(=O)N(Cc2cn(-c3cccc(Cl)c3)nn2)C1=O`: the pIC50 is 4.18. The pIC50 values of the last two molecules are within 0.2 log units of each other.

Turning to `CN(C)C=C1SC(=O)N(Cc2cn(-c3ccc(Cl)cc3)nn2)C1=O`, the negative-log IC50 (pIC50) was 4.01.

In the case of `CCCCn1cc(CN2C(=O)SC(=CN(C)C)C2=O)nn1`, the negative-log IC50 (pIC50) was 4.24.

On to `CN(C)C=C1SC(=O)N(Cc2cn(-c3ccccc3C(F)(F)F)nn2)C1=O`, for which the negative-log IC50 (pIC50) was 4.32.

With `CN(C)C=C1SC(=O)N(Cc2cn(-c3cccc(C(F)(F)F)c3)nn2)C1=O`, the pIC50 is 4.26.

For `CN(C)C=C1SC(=O)N(Cc2cn(-c3ccc(C(F)(F)F)cc3)nn2)C1=O`, the pIC50 is 4.08.

For `CN(C)C=C1SC(=O)N(Cc2cn(-c3ccccc3Cl)nn2)C1=O`, the negative-log IC50 (pIC50) was 4.04. This pIC50 and that of the molecule before are within 0.2 log units of each other.

With `COc1cccc(-n2cc(CN3C(=O)SC(=CN(C)C)C3=O)nn2)c1`, the pIC50 was 4.16.

`Cc1ccc(-n2cc(CN3C(=O)SC(=CN(C)C)C3=O)nn2)c(C)c1` showed a negative-log IC50 (pIC50) of 4.32.

Consider `Cc1ccc(C)c(-n2cc(CN3C(=O)SC(=CN(C)C)C3=O)nn2)c1`, for which the pIC50 was 4.03.

As to `Cc1cc(C)cc(-n2cc(CN3C(=O)SC(=CN(C)C)C3=O)nn2)c1`, the negative-log IC50 (pIC50) is 4.18.

Molecule `COc1ccccc1-n1cc(CN2C(=O)SC(=CN(C)C)C2=O)nn1` had a negative-log IC50 (pIC50) of 4.19.

Consider `CN(C)C=C1SC(=O)N(Cc2cn(-c3cccc(Cl)c3Cl)nn2)C1=O`, for which the pIC50 was 4.22.

Molecule `CCc1ccc(-n2cc(CN3C(=O)SC(=CN(C)C)C3=O)nn2)cc1` had a negative-log IC50 (pIC50) of 4.17.

With `CCc1ccccc1-n1cc(CN2C(=O)SC(=CN(C)C)C2=O)nn1`, the pIC50 is 4.31.

`CC(C)c1ccc(-n2cc(CN3C(=O)SC(=CN(C)C)C3=O)nn2)cc1`: the pIC50 was 4.27.

Molecule `CN(C)C=C1SC(=O)N(Cc2cn(Cc3ccccc3)nn2)C1=O` gave a negative-log IC50 (pIC50) of 4.10.

`CN(C)C=C1SC(=O)N(Cc2cn(Cc3ccc(Cl)cc3Cl)nn2)C1=O` showed a pIC50 of 4.35.

In the case of `CN(C)C=C1SC(=O)N(Cc2cn(CC(=O)c3ccc(Br)cc3)nn2)C1=O`, the negative-log IC50 (pIC50) is 4.11.
